In patent publication US8106031B2, “Hydrolytically-resistant boron-containing therapeutics and methods of use” (Anacor Pharmaceuticals, Inc., priority 2006, dated 2012):
Values after ≈ are worked out from the molar mass of the structure shown. Like-named read-outs stand apart in the source and are kept apart here.

Tests used:
Cryptococcus neoformans = assay: MIC against C. neoformans (NCCLS broth dilution); format: cell-based; settings: for MIC: Cryptococcus neoformans, read-out: Minimum inhibitory concentration, C. neoformans
Excerpt: (§1) To determine the antifungal activity of these compounds we screened for their minimum inhibitory concentrations (MIC) against the major dermatophytes that cause onychomycosis, T. rubrum and T. mentagrophytes, and against the yeasts and molds C. albicans, C. neoformans and A. fumigatus to test for their broad spectrum activity. The antifungal agent ciclopirox, currently in use for the topical treatment of onychomycosis, was used as a reference.
(§2) All MIC testing against Trichophyton rubrum, Trichophyton mentagrophytes, Candida albicans, Cryptococcus neoformans and Aspergillus fumigatus were determined following the National Committee for Clinical Laboratory Standards (NCCLS) guidelines for antimicrobial testing of yeasts and filamentous fungi.^i,ii
(§3) Two-fold serial dilutions of the test compounds were prepared in 96-well plates. […] Pfaller M A, Chaturvedi V, Espinel-Ingroff A, Ghannoum M A, Gosey L L, Odds F C, Rex J H, Rinaldi M G, Sheehan D J, Walsh T J, Warnock D W. NCCLS publication M27-A2—Reference Method for Broth Dilution Antifungal Susceptibility Testing of Yeasts; Approved Standard—Second Edition. […] Pfaller M A, Chaturvedi V, Espinel-Ingroff A, Ghannoum M A, Gosey L L, Odds F C, Rex J H, Rinaldi M G, Sheehan D J, Walsh T J, Warnock D W. NCCLS publication M38-A—Reference Method for Broth Dilution Antifungal Susceptibility Testing of Filamentous Fungi; Approved Standard.

Candida albicans = assay: MIC against C. albicans (NCCLS broth dilution); format: cell-based; settings: for MIC: Candida albicans, read-out: Minimum inhibitory concentration, C. albicans
Excerpt: as §1, §2, §3

[1] = test system: Trichophyton mentagrophytes; assay: MIC against T. mentagrophytes (NCCLS broth dilution); format: cell-based; settings: for MIC: Trichophyton mentagrophytes, read-out: Minimum inhibitory concentration, T. mentagrophytes
Excerpt: as §1, §2, §3

Aspergillus fumigatus = assay: MIC against A. fumigatus (NCCLS broth dilution); format: cell-based; settings: for MIC: Aspergillus fumigatus, read-out: Minimum inhibitory concentration, A. fumigatus
Excerpt: as §1, §2, §3

Trichophyton rubrum = assay: MIC against T. rubrum (NCCLS broth dilution); format: cell-based; settings: for MIC: Trichophyton rubrum, read-out: Minimum inhibitory concentration, T. rubrum
Excerpt: as §1, §2, §3

[2] = Table 1, over 90% reduction of growth, 24-168 h at 35° C.

In the case of `OB1OCc2cc(F)ccc21` [19b, 1,3-Dihydro-5-fluoro-1-hydroxy-2,1-benzoxaborole], the “fold increase in activity against C. neoformans” value (Cryptococcus neoformans; 19a relative to 9a, 19b relative to 9b) is reported as 8 fold, the MIC (Cryptococcus neoformans; [2]) is reported as 0.25 µg/mL (≈ 1.65 µM) and the “Minimum inhibitory concentration, C. neoformans” value (Cryptococcus neoformans; Table 3, 1-hydroxy series (19)) is reported as 0.25 µg/mL (≈ 1.65 µM). The MIC (Candida albicans; [2]) was 0.5 µg/mL (≈ 3.29 µM), the “Minimum inhibitory concentration, C. albicans” value (Candida albicans; Table 3, 1-hydroxy series (19)) was 0.5 µg/mL (≈ 3.29 µM) and the “Minimum inhibitory concentration, T. mentagrophytes” value ([1]; Table 3, 1-hydroxy series (19)) was 1 µg/mL (≈ 6.58 µM). For the same molecule, the MIC [1, 2] was 1 µg/mL (≈ 6.58 µM), the MIC (Aspergillus fumigatus; [2]) was 0.25 µg/mL (≈ 1.65 µM) and the “Minimum inhibitory concentration, A. fumigatus” value (Aspergillus fumigatus; Table 3, 1-hydroxy series (19)) was 0.25 µg/mL (≈ 1.65 µM). The “Minimum inhibitory concentration, T. rubrum” value (Trichophyton rubrum; Table 3, 1-hydroxy series (19)) was 1 µg/mL (≈ 6.58 µM) and the MIC (Trichophyton rubrum; [2]) was 1 µg/mL (≈ 6.58 µM).
Molecule `OB1OCc2cc(Cl)ccc21` [19d, 5-Chloro-1,3-dihydro-1-hydroxy-2,1-benzoxaborole] has an MIC (Cryptococcus neoformans; Table 3, 1-hydroxy series (19)) of 2 µg/mL (≈ 11.9 µM), an MIC (Candida albicans; Table 3, 1-hydroxy series (19)) of 1 µg/mL (≈ 5.94 µM) and an MIC ([1]; Table 3, 1-hydroxy series (19)) of 2 µg/mL (≈ 11.9 µM). For the same molecule, the MIC (Aspergillus fumigatus; Table 3, 1-hydroxy series (19)) was 1 µg/mL (≈ 5.94 µM) and the MIC (Trichophyton rubrum; Table 3, 1-hydroxy series (19)) was 1 µg/mL (≈ 5.94 µM).
With `Cc1ccc2c(c1)COB2O` [19e, 1,3-Dihydro-1-hydroxy-5-methyl-2,1-benzoxaborole] the MIC (Cryptococcus neoformans; Table 3, 1-hydroxy series (19)) was 8 µg/mL (≈ 54.1 µM), the MIC (Candida albicans; Table 3, 1-hydroxy series (19)) was 2 µg/mL (≈ 13.5 µM) and the MIC ([1]; Table 3, 1-hydroxy series (19)) was 4 µg/mL (≈ 27 µM). The MIC (Aspergillus fumigatus; Table 3, 1-hydroxy series (19)) was 2 µg/mL (≈ 13.5 µM) and the MIC (Trichophyton rubrum; Table 3, 1-hydroxy series (19)) was 8 µg/mL (≈ 54.1 µM).
In the case of `N#Cc1ccc2c(c1)COB2O` [19f, 5-Cyano-1,3-dihydro-1-hydroxy-2,1-benzoxaborolane], the “Minimum inhibitory concentration, C. neoformans” value (Cryptococcus neoformans; Table 3, 1-hydroxy series (19)) is reported as 16 µg/mL (≈ 101 µM), the “Minimum inhibitory concentration, C. albicans” value (Candida albicans; Table 3, 1-hydroxy series (19)) is reported as 16 µg/mL (≈ 101 µM) and the “Minimum inhibitory concentration, T. mentagrophytes” value ([1]; Table 3, 1-hydroxy series (19)) is reported as 8 µg/mL (≈ 50.3 µM). The “Minimum inhibitory concentration, A. fumigatus” value (Aspergillus fumigatus; Table 3, 1-hydroxy series (19)) was 8 µg/mL (≈ 50.3 µM) and the “Minimum inhibitory concentration, T. rubrum” value (Trichophyton rubrum; Table 3, 1-hydroxy series (19)) was 8 µg/mL (≈ 50.3 µM).
With `OCc1ccc2c(c1)COB2O` [19h, 1,3-Dihydro-1-hydroxy-5-hydroxymethyl-2,1-benzoxaborole] the MIC (Cryptococcus neoformans; Table 3, 1-hydroxy series (19)) was > 64 µg/mL, the MIC (Candida albicans; Table 3, 1-hydroxy series (19)) was > 64 µg/mL and the MIC ([1]; Table 3, 1-hydroxy series (19)) was 32 µg/mL (≈ 195 µM). For the same molecule, the MIC (Aspergillus fumigatus; Table 3, 1-hydroxy series (19)) was > 64 µg/mL and the MIC (Trichophyton rubrum; Table 3, 1-hydroxy series (19)) was 64 µg/mL (≈ 390 µM).
With `OB1OCc2cc(F)c(F)cc21` [19k, 5,6-Difluoro-1,3-dihydro-1-hydroxy-2,1-benzoxaborolane] the “Minimum inhibitory concentration, C. neoformans” value (Cryptococcus neoformans; Table 3, 1-hydroxy series (19)) was 2 µg/mL (≈ 11.8 µM), the “Minimum inhibitory concentration, C. albicans” value (Candida albicans; Table 3, 1-hydroxy series (19)) was 4 µg/mL (≈ 23.5 µM) and the “Minimum inhibitory concentration, T. mentagrophytes” value ([1]; Table 3, 1-hydroxy series (19)) was 4 µg/mL (≈ 23.5 µM). The “Minimum inhibitory concentration, A. fumigatus” value (Aspergillus fumigatus; Table 3, 1-hydroxy series (19)) was 2 µg/mL (≈ 11.8 µM) and the “Minimum inhibitory concentration, T. rubrum” value (Trichophyton rubrum; Table 3, 1-hydroxy series (19)) was 4 µg/mL (≈ 23.5 µM).
In the case of `OB1OCc2c(F)cccc21` [19l, 1,3-Dihydro-4-fluoro-1-hydroxy-2,1-benzoxaborole], the MIC (Cryptococcus neoformans; Table 3, 1-hydroxy series (19)) is reported as 32 µg/mL (≈ 211 µM), the MIC (Candida albicans; Table 3, 1-hydroxy series (19)) is reported as 64 µg/mL (≈ 421 µM) and the MIC ([1]; Table 3, 1-hydroxy series (19)) is reported as 16 µg/mL (≈ 105 µM). The MIC (Aspergillus fumigatus; Table 3, 1-hydroxy series (19)) was 32 µg/mL (≈ 211 µM) and the MIC (Trichophyton rubrum; Table 3, 1-hydroxy series (19)) was 16 µg/mL (≈ 105 µM).
In the case of `OB1OCc2ccc(F)cc21` [19m, 1,3-Dihydro-6-fluoro-1-hydroxy-2,1-benzoxaborole], the MIC (Cryptococcus neoformans; Table 3, 1-hydroxy series (19)) is reported as 32 µg/mL (≈ 211 µM), the MIC (Candida albicans; Table 3, 1-hydroxy series (19)) is reported as 16 µg/mL (≈ 105 µM) and the MIC ([1]; Table 3, 1-hydroxy series (19)) is reported as 32 µg/mL (≈ 211 µM). For the same molecule, the MIC (Aspergillus fumigatus; Table 3, 1-hydroxy series (19)) was 8 µg/mL (≈ 52.7 µM) and the MIC (Trichophyton rubrum; Table 3, 1-hydroxy series (19)) was 16 µg/mL (≈ 105 µM).
Molecule `OB1OCc2cccc(F)c21` [19n, 1,3-Dihydro-7-fluoro-1-hydroxy-2,1-benzoxaborolane] has an MIC (Cryptococcus neoformans; Table 3, 1-hydroxy series (19)) of 32 µg/mL (≈ 211 µM), an MIC (Candida albicans; Table 3, 1-hydroxy series (19)) of 32 µg/mL (≈ 211 µM) and an MIC ([1]; Table 3, 1-hydroxy series (19)) of 16 µg/mL (≈ 105 µM). For the same molecule, the MIC (Aspergillus fumigatus; Table 3, 1-hydroxy series (19)) was 4 µg/mL (≈ 26.3 µM) and the MIC (Trichophyton rubrum; Table 3, 1-hydroxy series (19)) was 16 µg/mL (≈ 105 µM).
Molecule `C=CB1OCc2cc(F)ccc21` [compound 11, 1,3-Dihydro-5-fluoro-1-vinyl-2,1-benzoxaborole] has an MIC (Cryptococcus neoformans; [2]) of 4 µg/mL (≈ 24.7 µM), an MIC (Candida albicans; [2]) of 1 µg/mL (≈ 6.17 µM) and an MIC [1, 2] of 2 µg/mL (≈ 12.3 µM). For the same molecule, the MIC (Aspergillus fumigatus; [2]) was 2 µg/mL (≈ 12.3 µM) and the MIC (Trichophyton rubrum; [2]) was 4 µg/mL (≈ 24.7 µM).
Molecule `Fc1ccc2c(c1)COB2c1ccoc1` [compound 12, 1,3-Dihydro-5-fluoro-1-(furan-3-yl)-2,1-benzoxaborole] has an MIC (Cryptococcus neoformans; [2]) of 4 µg/mL (≈ 19.8 µM), an MIC (Candida albicans; [2]) of 4 µg/mL (≈ 19.8 µM) and an MIC [1, 2] of 4 µg/mL (≈ 19.8 µM). It also gave an MIC (Aspergillus fumigatus; [2]) of 4 µg/mL (≈ 19.8 µM) and an MIC (Trichophyton rubrum; [2]) of 4 µg/mL (≈ 19.8 µM).
In the case of `Fc1ccc2c(c1)COB2c1ccsc1` [compound 13, 1,3-Dihydro-5-fluoro-1-(thiophen-3-yl)-2,1-benzoxaborole], the melting point is reported as 33 to 35 °C, the MIC (Cryptococcus neoformans; [2]) is reported as 1 µg/mL (≈ 4.59 µM) and the MIC (Candida albicans; [2]) is reported as 1 µg/mL (≈ 4.59 µM). It also gave an MIC [1, 2] of 4 µg/mL (≈ 18.3 µM), an MIC (Aspergillus fumigatus; [2]) of 1 µg/mL (≈ 4.59 µM) and an MIC (Trichophyton rubrum; [2]) of 1 µg/mL (≈ 4.59 µM).
`Cc1cscc1B1OCc2cc(F)ccc21` [compound 14, 1,3-Dihydro-5-fluoro-1-(4-methylthiophen-3-yl)-2,1-benzoxaborole] gave a melting point of 51 to 53 °C, an MIC (Cryptococcus neoformans; [2]) of 1 µg/mL (≈ 4.31 µM) and an MIC (Candida albicans; [2]) of 1 µg/mL (≈ 4.31 µM). It also gave an MIC [1, 2] of 2 µg/mL (≈ 8.62 µM), an MIC (Aspergillus fumigatus; [2]) of 1 µg/mL (≈ 4.31 µM) and an MIC (Trichophyton rubrum; [2]) of 1 µg/mL (≈ 4.31 µM).
